Laboratory results as given in ChEMBL document CHEMBL1201862, “PubChem BioAssay data set” (2004).
The source made the active and inactive calls.

Experiments:
[1] = target: T1, Fatty acid synthase (Homo sapiens, UniProt P49327); test: inhibition of human FAS-TE enzyme activity – biochemical, endpoint fluorescence intensity, uHTS hits, dose response (AID 624327); format: functional;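 note: fluorescence from hydrolysis of an O-methyl fluorescein acyl ester substrate by the enzyme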
[2] = target: T1, Fatty acid synthase; test: inhibition of human FAS-TE enzyme activity – biochemical, kinetic fluorescence intensity, dose response (AID 624326); format: functional;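 note: rate of fluorescence rise from hydrolysis of a fluorogenic O-methyl fluorescein ester substrate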
[3] = target: Major prion protein (Homo sapiens, UniProt P04156); format: functional, cell-based
[4] = cells
[5] = intracellular Trypanosoma cruzi inhibitors in host cells – cell-based, plate reader, cherry-pick samples, set 3, dose response (AID 651818); format: functional;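 note: compounds incubated with infected cells for about four days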
[6] = target: Albumin (Bos taurus, UniProt P02769); test: Counterscreen for inhibitors of T-cell receptor (TCR)-CD3 interaction: Fluorescence-based biochemical high throughput dose response assay to identify inhibitors of T-cell receptor (TCR)-CD3 interaction using a TAMRA-labeled BSA probe.; format: functional
[7] = Luminescence Cell-Based Dose Confirmation HTS to Identify Activators of 5'UTR Stem-Loop Driven Alpha-Synuclein mRNA Translation in H4 Neuroglioblastoma Cells. [Related pubchem assays: 1829 (Project Summary), 1814 (Primary HTS)]; format: functional
[8] = Luminescence Cell-Based Dose Response HTS to Identify Activators of Luciferase Translation or Activity in H4 […] Cells. [Related pubchem assays: 1829 (Project Summary), 1814 (Primary HTS)]; format: functional
[9] = test system: H4; test: Luminescence Cell-Based Dose Response HTS to Identify Activators of 5'UTR Stem-Loop Driven Prion Protein mRNA Translation in H4 Neuroglioblastoma Cells. [Related pubchem assays: 1829 (Project Summary), 1814 (Primary HTS)]; format: functional; details: Homo sapiens
[10] = target: Mu-type opioid receptor (Homo sapiens, UniProt P35372); format: functional, cell-based;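 note: U2OS cells with beta-arrestin recruitment to OPRM1 by beta-gal complementation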
[11] = target: 5-hydroxytryptamine receptor 2A (Mus musculus, UniProt P35363); format: functional, cell-based;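 note: CHO-K1 cells with tagged receptor and beta-arrestin; agonist potency measured as compound-induced activation of the receptor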
[12] = luciferase reporter signal suppression in cells – H4 neuroglioma cells, luminescence, dose response (AID 1990); format: functional, cell-based
[13] = test system: Streptococcus sp. 'group A'; test: Streptococcus pyogenes SK(-)GAS viability under kanamycin – luminescence, BacTiterGlo, confirmation, counter-screen for streptokinase expression inhibitor project, dose response (AID 1900); format: functional, organism-based
[14] = Luminescence Cell-Based Dose Response HTS to Identify Inhibitors of 5'UTR Stem-Loop Driven Prion Protein mRNA Translation in H4 Neuroglioblastoma Cells. [Related pubchem assays: 1827 (Project Summary), 1813 (Primary HTS)]; format: functional
[15] = alpha-synuclein stem-loop luciferase translation blockers – H4 neuroglioma cells, luminescence, confirmation (AID 1988); format: functional, cell-based
[16] = test system: Streptococcus; test: GAS UMAA2166 growth inhibition – luminescence, BacTiterGlo, counter-screen for streptokinase expression inhibitor project, dose response (AID 1915); format: functional, organism-based;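 note: potency for reduction of bacterial viability or growth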
[17] = test system: HEK293; test: EBV LMP1 TES2 canonical NF-kB signalling blockers – cell-based, HEK293, luciferase, cherry-pick, dose response (AID 588343); format: functional; details: Homo sapiens
[18] = test system: INS1; test: INS-1E survival protection against cytokine death – cell-based, luminescence, retest, dose response (AID 449756); format: functional; details: Rattus norvegicus;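 note: cell death triggered by IL-1 beta plus TNF-alpha plus IFN-gamma mixture; protective hits raise ATP signal compared with cytokine alone wells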
[19] = blockers of HIV-1 envelope-mediated cell-cell fusion – cherry-pick, dose response (AID 652057); format: functional, cell-based
[20] = viability loss in CEM21 cells – cell-based, CellTiter-Glo luminescence, cherry-picked, cytotoxicity control for viral fusion inhibitor project, dose response (AID 652042); format: functional;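 note: potency for signal decrease meaning cytotoxicity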
[21] = blockers of HIV-1 ZM109 envelope-driven cell-cell fusion – HeLa effector, CEM target cells, luciferase, cherry-pick, dose response (AID 652058); format: functional, cell-based;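 note: luciferase signal from HIV-1 Env mediated cell-cell fusion of effector and target cells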
[22] = HIV-1 AD8 envelope cell-cell fusion blockers – cherry-pick, dose response (AID 652062); format: functional, cell-based;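 note: luciferase signal from cell-cell fusion driven by HIV-1 clade B AD8 Env; potency is for inhibitors of fusion seen as a drop in luminescence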

For Cc1ccc2[nH]c(SCC(=O)Nc3ccc(F)c([N+](=O)[O-])c3)nc2c1, the IC50 [1] was 6.64 µM (active) and the IC50 [2] was 8 µM (active).

With CN1C(=O)C(C)(C)c2cc(S(=O)(=O)N3CCCC(C(=O)Nc4ccc(Cl)cc4)C3)ccc21 (centres undefined) the IC50 [3] was 5.86 µM (active) and the IC50 [4] was > 138 µM (inactive).

In the case of COc1cc(OC)c(N2CC(C(=O)NCCC3=CCCCC3)CC2=O)cc1Cl (centres undefined), the IC50 [1] is reported as 9.83 µM (active) and the IC50 [2] is reported as 11.8 µM (active).

For N#CC(CCc1ccccc1[N+](=O)[O-])(CCc1ccccc1[N+](=O)[O-])C(N)=O, the IC50 [1] was 11.4 µM (active) and the IC50 [2] was 12 µM (active).

In the case of C[C@@H]1CN([C@@H](C)CO)C(=O)Cc2cc(NC(=O)Nc3ccc(F)cc3)ccc2O[C@@H]1CN(C)Cc1ccc(C(F)(F)F)cc1, the AC50 [5] is reported as 4.91 µM (active).

For C[C@H](CO)N1C[C@H](C)[C@@H](CN(C)Cc2ccncc2)Oc2c(NC(=O)c3ccc(-c4nccs4)cc3)cccc2C1=O, the AC50 [5] was 20 µM (inactive).

With CC1(C(=O)Nc2ccc(Cl)c(Cl)c2)CCN1C(=O)CC1CCCC1 (centres undefined) the IC50 [1] was 8.5 µM (active) and the IC50 [2] was 4.39 µM (active).

In the case of COc1ccccc1C(=O)NNC(=O)c1ccc2ccccc2c1O, the IC50 [6] is reported as > 94.2 µM (inactive).

With C[C@H]1CN([C@@H](C)CO)C(=O)Cc2cc(NC(=O)Nc3cccc4ccccc34)ccc2O[C@@H]1CN(C)Cc1ccc(-c2ccccc2)cc1 the AC50 [5] was 7.08 µM (active).

With Cc1noc(C)c1S(=O)(=O)Nc1ccc2c(c1)CC(=O)N([C@H](C)CO)C[C@@H](C)[C@@H](CN(C)Cc1ccc(C(F)(F)F)cc1)O2 the AC50 [5] was 5.96 µM (active).

With C[C@H](CO)N1C[C@H](C)[C@H](CN(C)Cc2ccc(C(F)(F)F)cc2)Oc2ccc(NC(=O)Nc3cccc4ccccc34)cc2CC1=O the AC50 [5] was 1.05 µM (active).

In the case of Brc1ccc2nc(-c3ccc(CN4CCC5(CC4)CNc4ccccc45)cc3)c(-c3ccccc3)nc2c1, the IC50 [3] is reported as 7.84 µM (active) and the IC50 [4] is reported as > 138 µM (inactive).

With CN1CCc2c(sc(/N=C/c3cc(Cl)ccc3O)c2C#N)C1 the EC50 [7] was 7.13 µM (active), the EC50 [8] was 5.07 µM (active) and the EC50 [9] was 34.8 µM (active). For the same compound, the EC50 [10] was 92.4 µM (inactive) and the EC50 [11] was 76.1 µM (inactive).

In the case of CCCc1cc(=O)n2ncc(-c3ccc(Cl)cc3)c2[nH]1, the EC50 [12] is reported as 11.6 µM (active), the EC50 [13] is reported as 1.71 µM (active) and the EC50 [14] is reported as 12.3 µM (active). The EC50 [15] was 10.9 µM (active), the EC50 [16] was 5.62 µM (active) and the AC50 [17] was 4.07 µM (active). For the same compound, the AC50 [18] was 5.79 µM (active), the AC50 [19] was 2.65 µM (active) and the AC50 [20] was 4.59 µM (active). The AC50 [21] was 7.51 µM (active) and the AC50 [22] was 11.2 µM (active).
